What was measured:
[1] = tested on: Beet Armyworm (Spodoptera exigua); assay: Bioassay on Beet Armyworm (BAW), 128-well diet tray assay; assay type: in vivo; details: for pest or weed control at 50 µg/cm2: Beet Armyworm, Table ABC, read-out: BAW rating
How it was run: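 Second-instar larvae (one to five per well) placed on artificial diet surface-treated with 50 μg/cm^2 test molecule in 90:10 acetone-water, dried, eight wells per molecule. Held at 25° C, 14:10 light-dark, five to seven days; percent mortality recorded per well and averaged across the eight wells.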

[2] = tested on: Cabbage Looper (Trichoplusia ni); assay: Bioassay on Cabbage Looper (CL), 128-well diet tray assay; assay type: in vivo; details: for pest or weed control at 50 µg/cm2: Cabbage Looper, Table ABC, read-out: CL rating
How it was run: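 Second-instar larvae, one to five per well, placed on artificial diet surface-treated with 50 μg/cm^2 compound in acetone-water, eight wells per compound. Held 5-7 days at 25° C, 14:10 light-dark; percent mortality per well averaged across wells.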

SMILES | pest or weed control at 50 µg/cm2 [1] | pest or weed control at 50 µg/cm2 [2] | other results
C[C@@H](NC(=O)c1ccc(/C(F)=C/C(c2cc(Cl)c(Cl)c(Cl)c2)C(F)(F)F)cc1C(F)(F)F)C(=O)N(O)CC(F)(F)F (stereo partly drawn) [F169, N—((R)-1-(Hydroxy(2,2,2-trifluoroethyl)amino)-1-oxopropan-2-yl)-4-((Z)-1,4,4,4-tetrafluoro-3-(3,4,5-trichlorophenyl)but-1-en-1-yl)-2-(trifluoromethyl)benzamide] | 50 to 100% | 50 to 100% | 
O=C(CNC(=O)c1ccc(/C(F)=C/C(c2cc(F)c(F)c(Br)c2)C(F)(F)F)cc1C(F)(F)F)NCC(F)(F)F (stereo not drawn) [F217, (Z)-4-(3-(3-Bromo-4,5-difluorophenyl)-1,4,4,4-tetrafluorobut-1-en-1-yl)-N-(2-oxo-2-((2,2,2-trifluoroethyl)amino)ethyl)-2-(trifluoromethyl)benzamide] | 50 to 100% | 50 to 100% | 
C=Cc1cc(/C(F)=C/C(c2cc(Cl)c(Cl)c(Cl)c2)C(F)(F)F)ccc1C(=O)N[C@@H]1CON(CC(F)(F)F)C1=O (stereo partly drawn) [F204, N—((R)-3-Oxo-2-(2,2,2-trifluoroethyl)isoxazolidin-4-yl)-4-((Z)-1,4,4,4-tetrafluoro-3-(3,4,5-trichlorophenyl)but-1-en-1-yl)-2-vinylbenzamide] | 50 to 100% | 50 to 100% | 
O=C(CNC(=O)c1ccc(/C(F)=C/C(c2ccc(C(F)(F)F)c(Cl)c2)C(F)(F)F)cc1C(F)(F)F)NCC(F)(F)F (stereo not drawn) [F206, (Z)-4-(3-(3-Chloro-4-(trifluoromethyl)phenyl)-1,4,4,4-tetrafluorobut-1-en-1-yl)-N-(2-oxo-2-((2,2,2-trifluoroethyl)amino)ethyl)-2-(trifluoromethyl)benzamide] | 50 to 100% | 50 to 100% | 
C[C@@H](NC(=O)c1ccc(/C(F)=C/C(c2ccc(OCC(F)(F)F)c(Cl)c2)C(F)(F)F)cc1C(F)(F)F)C(=O)NCC(F)(F)F (stereo partly drawn) [F162, 4-((Z)-3-(3-Chloro-4-(2,2,2-trifluoroethoxy)phenyl)-1,4,4,4-tetrafluorobut-1-en-1-yl)-N—((R)-1-oxo-1-((2,2,2-trifluoroethyl)amino)propan-2-yl)-2-(trifluoromethyl)benzamide] | 50 to 100% | 50 to 100% | 
C=C(C)c1cc(C(/C=C(\F)c2ccc(C(=O)N[C@H](C)C(=O)NCC(F)(F)F)c(C(F)(F)F)c2)C(F)(F)F)cc(Cl)c1Cl (stereo partly drawn) [F187, 4-((Z)-3-(3,4-Dichloro-5-(prop-1-en-2-yl)phenyl)-1,4,4,4-tetrafluoro-but-1-en-1-yl)-N—((R)-1-oxo-1-((2,2,2-trifluoroethyl)amino)propan-2-yl)-2-(trifluoromethyl)benzamide] | 50 to 100% | 50 to 100% | 
C[C@@H](NC(=O)c1ccc(/C(F)=C/C(c2cc(Cl)c(Cl)c(C#N)c2)C(F)(F)F)cc1C(F)(F)F)C(=O)NCC(F)(F)F (stereo partly drawn) [F192, 4-((Z)-3-(3,4-Dichloro-5-cyanophenyl)-1,4,4,4-tetrafluorobut-1-en-1-yl)-N—((R)-1-oxo-1-((2,2,2-trifluoroethyl)amino)propan-2-yl)-2-(trifluoromethyl)benzamide] | 50 to 100% | 50 to 100% | 
O=C(NC1(C(=S)NCC(F)(F)F)CC1)c1ccc(/C(F)=C/C(c2cc(Cl)c(Cl)c(Cl)c2)C(F)(F)F)cc1C(F)(F)F (stereo not drawn) [PF98, (Z)-4-(1,4,4,4-Tetrafluoro-3-(3,4,5-trichlorophenyl)but-1-en-1-yl)-N-(1-((2,2,2-trifluoroethyl)carbamothioyl)cyclopropyl)-2-(trifluoromethyl)benzamide] | 50 to 100% | 50 to 100% | 
CCN(CC(F)(F)F)C(=O)[C@@H](C)NC(=O)c1ccc(/C(F)=C/C(c2cc(Cl)c(Cl)c(Cl)c2)C(F)(F)F)cc1C(F)(F)F (stereo partly drawn) [F20, N—((R)-1-(Ethyl(2,2,2-trifluoroethyl)amino)-1-oxopropan-2-yl)-4-((Z)-1,4,4,4-tetrafluoro-3-(3,4,5-trichlorophenyl)but-1-en-1-yl)-2-(trifluoromethyl)benzamide] | 50 to 100% | 50 to 100% | 
C[C@@H](NC(=O)c1ccc(/C(F)=C/C(c2ccc(Cl)c(OC(F)(F)F)c2)C(F)(F)F)cc1C(F)(F)F)C(=O)NCC(F)(F)F (stereo partly drawn) [F183, 4-((Z)-3-(4-Chloro-3-(trifluoromethoxy)phenyl)-1,4,4,4-tetrafluorobut-1-en-1-yl)-N—((R)-1-oxo-1-((2,2,2-trifluoroethyl)amino)propan-2-yl)-2-(trifluoromethyl)benzamide] | 50 to 100% | 50 to 100% | 
O=C(N[C@@H]1CON(CC(F)(F)F)C1=O)c1ccc(/C(F)=C/C(c2cc(Cl)c(Cl)c(Cl)c2)C(F)(F)F)cc1C(F)(F)F (stereo partly drawn) [F106, N—((R)-3-Oxo-2-(2,2,2-trifluoroethyl)isoxazolidin-4-yl)-4-((Z)-1,4,4,4-tetrafluoro-3-(3,4,5-trichlorophenyl)but-1-en-1-yl)-2-(trifluoromethyl)benzamide] | 50 to 100% | 50 to 100% | 
C[C@@H](NC(=O)c1ccc(/C(F)=C/C(c2cc(Cl)cc(CC(F)(F)F)c2)C(F)(F)F)cc1C(F)(F)F)C(=O)NCC(F)(F)F (stereo partly drawn) [F176, 4-((Z)-3-(3-Chloro-5-(2,2,2-trifluoroethyl)phenyl)-1,4,4,4-tetrafluorobut-1-en-1-yl)-N—((R)-1-oxo-1-((2,2,2-trifluoroethyl)amino)propan-2-yl)-2-(trifluoromethyl)benzamide] | 50 to 100% | 50 to 100% | 
C[C@@H](NC(=O)c1ccc(/C(F)=C/C(c2cc(Cl)cc(C#CC(C)(C)C)c2)C(F)(F)F)cc1C(F)(F)F)C(=O)NCC(F)(F)F (stereo partly drawn) [F212, 4-((Z)-3-(3-Chloro-5-(3,3-dimethylbut-1-yn-1-yl)phenyl)-1,4,4,4-tetrafluorobut-1-en-1-yl)-N—((R)-1-oxo-1-((2,2,2-trifluoroethyl)amino)propan-2-yl)-2-(trifluoromethyl)benzamide] | 50 to 100% | 50 to 100% | 
C[C@@H](NC(=O)c1ccc(/C(F)=C/C(c2cc(Cl)c(Cl)c(Cl)c2)C(F)(F)F)cc1Cl)C(=O)NCC(F)(F)F (stereo partly drawn) [F23, 2-Chloro-N—((R)-1-oxo-1-((2,2,2-trifluoroethyl)amino)propan-2-yl)-4-((Z)-1,4,4,4-tetrafluoro-3-(3,4,5-trichlorophenyl)but-1-en-1-yl)benzamide] | 50 to 100% | 50 to 100% | mortality at 0.05 µg/cm2 ([1]; 168 h, 0.05 μg/cm^2 on artificial diet, second instar larvae, five to seven days, read-out: BAW Percent control (or mortality)): 81%; mortality at 0.5 µg/cm2 ([1]; 168 h, 0.5 μg/cm^2 on artificial diet, second instar larvae, five to seven days, read-out: BAW Percent control (or mortality)): 100%; mortality at 5 µg/cm2 ([1]; 168 h, 5 μg/cm^2 on artificial diet, second instar larvae, five to seven days, read-out: BAW Percent control (or mortality)): 100%; mortality at 0.05 µg/cm2 ([2]; 168 h, 0.05 μg/cm^2 on artificial diet, second instar larvae, five to seven days, read-out: CL Percent control (or mortality)): 100%; mortality at 0.5 µg/cm2 ([2]; 168 h, 0.5 μg/cm^2 on artificial diet, second instar larvae, five to seven days, read-out: CL Percent control (or mortality)): 100%; mortality at 5 µg/cm2 ([2]; 168 h, 5 μg/cm^2 on artificial diet, second instar larvae, five to seven days, read-out: CL Percent control (or mortality)): 100%
C[C@@H](NC(=O)c1ccc(/C(F)=C/C(c2cc(Cl)c(Cl)c(Cl)c2)C(F)(F)F)cc1C(F)(F)F)C(=O)N(CC(F)(F)F)NC(=O)OC(C)(C)C (stereo partly drawn) [F55, tert-Butyl 2-((2R)-2-(4-((Z)-1,4,4,4-tetrafluoro-3-(3,4,5-trichlorophenyl)but-1-en-1-yl)-2-(trifluoromethyl)benzamido)propanoyl)-2-(2,2,2-trifluoroethyl)hydrazinecarboxylate] | 50 to 100% | 50 to 100% | 
